Source: publication PMC4865845, “A human genome-wide loss-of-function screen identifies effective chikungunya antiviral drugs” (Nature Communications, 2016)

tested on: CHIKV; format: cell-based, chikungunya virus

Compared with “s16461 (GGTCAATCCTAGTATCTCT; chemistry not given here)”, “s16633 (CAACCACAATGTTCGTAAA; chemistry not given here)” is higher in Score_si3: 0.88 for the first, 1.99 for the second.

Compared with “s16997 (CAGCTTCCATTATGCCCAA; chemistry not given here)”, “s17000 (GATGAAAGGTTACAATCCA; chemistry not given here)” is higher in Score_si3: 0.97 for the first, 1.29 for the second.

Compared with “s17018 (GGAAATAGGTCTAGTACTA; chemistry not given here)”, “s17301 (GCCTGGTATTTTGAAATCA; chemistry not given here)” is lower in Score_si3: 1.2 for the first, 0.7 for the second.

Going from “s17591 (CGATATGAACCTGACAGTA; chemistry not given here) [reference compound]” to “s17802 (GGAGTTAAACATAGATGTA; chemistry not given here)”, the Score_si3 rises from -0.15 to 1.28.

Compared with “s17901 (GGAAATCGGCCTACAAGAT; chemistry not given here)”, “s18076 (GAAATACCCTATTACCAAA; chemistry not given here) [reference compound]” is lower in Score_si3: 1.51 for the first, -0.61 for the second.

Going from “s18077 (CCTGTTCATTGATCGAACA; chemistry not given here) [reference compound]” to “s18240 (GATTGATGCTGGAAGTAGA; chemistry not given here)”, the Score_si3 rises from -0.59 to 1.21.

Going from “s18271 (CCTCTTCACTAAGACCCAT; chemistry not given here)” to “s18704 (sense GCAGATTATTTGCAAGCGA; chemistry not given here) [reference compound]”, the Score_si3 falls from 1.67 to -0.73.

Going from “s18906 (sense GAAGGAATTTCATTTGACA; chemistry not given here)” to “s19038 (sense GGAATATTCTTCAGCTACA; chemistry not given here)”, the Score_si3 falls from 1.68 to 1.51.

First: s19089 (sense GGATAAGACAGTAACCCGA; chemistry not given here) [reference compound]
Second: s19990 (sense GGCTCTGACTACAAACTGA; chemistry not given here)
The Score_si3 of the first is lower: -0.56 for the first, 0.89 for the second.

Going from “s20340 (sense CAGGCTATCTGAACACGGT; chemistry not given here)” to “s20509 (sense GGACGGCCCAAATCCAAAA; chemistry not given here) [reference compound]”, the Score_si3 falls from 1.49 to -0.99.

Going from “s20631 (sense GGACGGAAGCGAAAATCGA; chemistry not given here)” to “s20649 (sense GAATTACGGAGTCAACAAA; chemistry not given here) [reference compound]”, the Score_si3 falls from 1.89 to -1.04.

First: s21425 (sense GCCTGTTACAGATGACATA; chemistry not given here)
Second: s21624 (sense GGTGTAACCGATTCACTAT; chemistry not given here)
The Score_si3 of the first is lower: 0.63 for the first, 0.86 for the second.

Going from “s24801 (sense CCAAGGTCCTGAGGTCTAA; chemistry not given here)” to “s24924 (sense CAGTCGTCCTCAGATGATA; chemistry not given here) [reference compound]”, the Score_si3 falls from 1.43 to -0.67.

Going from “s25039 (sense CAAATTTCCTGTTAATCGA; chemistry not given here) [reference compound]” to “s25485 (sense ACTTCCTGTTGGTCTACAA; chemistry not given here)”, the Score_si3 rises from -0.41 to 1.19.

First: s25624 (sense GGAATGGTGTTGATACAAA; chemistry not given here) [reference compound]
Second: s26119 (sense CATGGATGAGTTTACCCAA; chemistry not given here) [reference compound]
The Score_si3 of the first is lower: -0.7 for the first, -0.65 for the second.

Substance “s26229 (sense GGTGGTATACGGGACCAAT; chemistry not given here)” has a Score_si3 of -0.1.

First: s16634 (GCATAGTTTCGGTCATCTA; chemistry not given here)
Second: s16837 (CAATGATCCAATCCACGAA; chemistry not given here)
The Score_si1 of the first is higher: 2.03 for the first, 1.36 for the second.

First: s17187 (GGATTGACCTCACCCAGAA; chemistry not given here)
Second: s18241 (GCTTGATGGTTCAACTCCA; chemistry not given here)
The Score_si1 of the first is higher: 2.03 for the first, 2.01 for the second.

Compared with “s26801 (sense CCGAGAACCTCACAGAGAA; chemistry not given here)”, “s26873 (sense CTTCGAGACCGGTTCAAGA; chemistry not given here)” is lower in Score_si1: 2.26 for the first, 2.15 for the second.

Going from “s16635 (GAGCACTACTTGTACATGA; chemistry not given here)” to “s16996 (CAACATTGGTGGGAATGCA; chemistry not given here)”, the Score_si2 falls from 2.02 to 1.51.

“s16999 (GCACGTAACAGCTAAGGAA; chemistry not given here)” and “s17019 (CCACGTGATAAATCAAGAA; chemistry not given here)” are the same in Score_si2: 1.29 for the first, 1.29 for the second.

Going from “s17590 (CAACAGTTCTCAGACCAAA; chemistry not given here) [reference compound]” to “s18239 (CGGTGACTCTTTATGCACA; chemistry not given here)”, the Score_si2 rises from -0.8 to 1.37.

First: s18705 (sense GCTCGTTACCTACATAGTA; chemistry not given here) [reference compound]
Second: s18908 (sense GCAGATCACATGAAGAGAA; chemistry not given here)
The Score_si2 of the first is lower: -0.84 for the first, 1.75 for the second.

Compared with “s19091 (sense CAACAACCTTACACGAGTA; chemistry not given here) [reference compound]”, “s20629 (sense GGAGAAAGAATCAACGGAA; chemistry not given here)” is higher in Score_si2: -0.78 for the first, 2 for the second.

Compared with “s21424 (sense GCAGTGAAATATCCATGAT; chemistry not given here)”, “s21552 (sense TCGCTTCTGTATTTATGTT; chemistry not given here)” is higher in Score_si2: 0.74 for the first, 1.41 for the second.

Compared with “s21625 (sense GCAGCCTTGTTGCTCTTAA; chemistry not given here)”, “s24800 (sense CTATGGATGTTGATGTAGA; chemistry not given here)” is higher in Score_si2: 1.37 for the first, 1.78 for the second.

Compared with “s25186 (sense ACTTCTCCGTGATCCTGAA; chemistry not given here)”, “s25487 (sense AGTATTTGTTGGTTCATAA; chemistry not given here)” is higher in Score_si2: 1.53 for the first, 1.54 for the second.

First: s26120 (sense GGCCCTTCATCGATAGCTA; chemistry not given here) [reference compound]
Second: s26228 (sense GAACCTCACTGAGCCTTGA; chemistry not given here)
The Score_si2 of the first is lower: -0.97 for the first, 0.75 for the second.

“s27209 (sense GGGTATAGAGGATAACCAA; chemistry not given here) [reference compound]” was tested, and the Score_si2 was -0.58.

Going from “s16998 (GAAATTCCATGTCATTGTA; chemistry not given here)” to “s17302 (GCTCCTTTAGGTTATGATA; chemistry not given here)”, the Score_si4 falls from 0.65 to -0.05.

Going from “s17592 (GCAACTCTCCTTCACCAAT; chemistry not given here) [reference compound]” to “s18074 (CCTCGAGACTATACGGTTA; chemistry not given here) [reference compound]”, the Score_si4 falls from -0.08 to -0.5.

First: s18079 (CAATAGTAAAGGGATATAA; chemistry not given here) [reference compound]
Second: s18269 (CCATTGCGGAGATCAAGAA; chemistry not given here)
The Score_si4 of the first is lower: -0.28 for the first, 0.18 for the second.

Compared with “s18706 (sense GAATCTGAACGAACGATAT; chemistry not given here) [reference compound]”, “s19040 (sense GTACATAACATCAATTTCA; chemistry not given here)” is higher in Score_si4: -0.67 for the first, 0.32 for the second.

First: s19090 (sense GGATCTGACTATTCGCACT; chemistry not given here) [reference compound]
Second: s19989 (sense CTATGCTACCCTCTACTTT; chemistry not given here)
The Score_si4 of the first is lower: 0.04 for the first, 0.18 for the second.

Going from “s20508 (sense CACTTGAGGAGTTACTGAA; chemistry not given here) [reference compound]” to “s20630 (sense GCAAGCTGCTGATCGAGTT; chemistry not given here)”, the Score_si4 rises from -0.76 to 0.85.

Compared with “s20833 (sense GAATATGACTCTGCAAAGA; chemistry not given here)”, “s21554 (sense CAGTATTGGTTATGAGTCT; chemistry not given here)” is higher in Score_si4: 0.65 for the first, 0.67 for the second.

Compared with “s21626 (sense GGCAGTTGATTGTGGATGA; chemistry not given here)”, “s24923 (sense GGAAGTGAAGGAGTAAGTA; chemistry not given here) [reference compound]” is lower in Score_si4: 0.37 for the first, -0.27 for the second.

Compared with “s25038 (sense GGTCTTTACTAGGTGTATT; chemistry not given here) [reference compound]”, “s25184 (sense CCCATCAACTTCTCCGTGA; chemistry not given here)” is higher in Score_si4: -0.18 for the first, 0.53 for the second.

First: s25486 (sense GGTCTACAATCGGATGACA; chemistry not given here)
Second: s25626 (sense CAAATCCTATAGTATAACA; chemistry not given here) [reference compound]
The Score_si4 of the first is higher: 1.05 for the first, -0.37 for the second.

Compared with “s26230 (sense CGGGACCAATTACCGCAAA; chemistry not given here)”, “s26802 (sense ACATCTCAGGGACCCATTT; chemistry not given here)” is higher in Score_si4: -0.18 for the first, 1.65 for the second.

Going from “s26872 (sense GGGTTGACCTCATCCTCGA; chemistry not given here)” to “s27208 (sense GACACTTGTTTCTTACCTA; chemistry not given here) [reference compound]”, the Score_si4 falls from 1.69 to 0.22.
